# Article PMC10311946 (ACS chemical biology, 2023)
# Where “and” joins values, the source holds several entries; their conditions need not be identical. Equal values may be shown once. Entries after “also recorded” stand apart in the source; their conditions may differ. Read-outs that look alike come from different tables or passages of the source.
# Columns and labels:
# [1] = molecular target: T1, FabH (Escherichia coli, UniProt P0A6R0); assay: continuous UV-Vis assay for the production of acetoacetyl-CoA; type: biochemical; details: for effect on FabH activity with acetyl-CoA and malonyl-CoA as substrates: UV-Vis assays
# T1 sequence (P0A6R0 whole entry): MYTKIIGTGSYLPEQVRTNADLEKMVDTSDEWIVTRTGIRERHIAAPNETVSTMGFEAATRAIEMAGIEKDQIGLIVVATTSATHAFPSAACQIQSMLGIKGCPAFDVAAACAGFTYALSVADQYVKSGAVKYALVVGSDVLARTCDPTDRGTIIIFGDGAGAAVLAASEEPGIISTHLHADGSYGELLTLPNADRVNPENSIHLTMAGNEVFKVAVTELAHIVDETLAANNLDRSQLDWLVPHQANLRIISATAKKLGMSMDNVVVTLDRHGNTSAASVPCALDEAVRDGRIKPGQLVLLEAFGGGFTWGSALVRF
# [2] = test system: FabH C112Q; type: biochemical, Escherichia coli; details: for Initial rate of hydrolysis to CoA or oxa(dethia)CoA / Initial rate, malonyl-CoA → acetyl-CoA/acetoacetyl-CoA: FabH C112Q, 10 μM enzyme; for stability with the FabH C112Q mutant: over 24 hours, 10 μM FabH C112Q
# [3] = non-enzymatic stability/hydrolysis in buffer followed by HPLC; type: physicochemical; details: for Non-enzymatic hydrolysis rate: pH 6 and 7
# [4] = test system: E. coli FabH; details: for Initial rate of hydrolysis to CoA or oxa(dethia)CoA / Initial rate, malonyl-CoA → acetyl-CoA/acetoacetyl-CoA: FabH wt, 10 μM FabH; for activating potential for FabH decarboxylation of malonyl-CoA to acetoacetyl-CoA: FabH incubated with 125 μM analog then 250 μM malonyl-CoA, HPLC progress curves; for time to reaction completion: FabH
# [5] = molecular target: T1, FabH; details: cited from earlier work
# [6] = test system: citrate synthase; details: cited from earlier work
# [7] = test system: phosphotransacetylase; details: cited from earlier work
# [8] = test system: fluoroacetyl-CoA hydrolase; details: cited from earlier work
# [9] = competition with malonyl-CoA binding assumed, pH 8.0, 50 mM Mg2+
# [10] = pH 6, ~250 μM substrate or analog
# [11] = pH 7, ~250 μM substrate or analog
# [12] = pH 8, ~250 μM substrate or analog
# [13] = varying malonyl-CoA, acetyl-CoA at 125 μM, substrate inhibition model
compound,measurement,setting,value
CC(C)(COP(=O)(O)OP(=O)(O)OC[C@H]1O[C@@H](n2cnc3c(N)ncnc32)[C@H](O)[C@@H]1OP(=O)(O)O)[C@@H](O)C(=O)NCCC(=O)NCCS [CoA],Ki,[1]; [9],150 ± 70 µM
CC(=O)SCCNC(=O)CCNC(=O)[C@H](O)C(C)(C)COP(=O)(O)OP(=O)(O)OC[C@H]1O[C@@H](n2cnc3c(N)ncnc32)[C@H](O)[C@@H]1OP(=O)(O)O [acetyl-CoA],Initial rate of hydrolysis to CoA or oxa(dethia)CoA,[2]; [10],0.0005 ± 0.0001 min⁻¹
same,Initial rate of hydrolysis to CoA or oxa(dethia)CoA,[2]; [11],0.0006 ± 0.0001 min⁻¹
same,Initial rate of hydrolysis to CoA or oxa(dethia)CoA,[2]; [12],0.0030 ± 0.0001 min⁻¹
same,Km,"[1]; read-out: apparent Km, varying acetyl-CoA with 125 μM malonyl-CoA",0.0003 ± 0.0001 mM
same,Non-enzymatic hydrolysis rate,[3],~ 0.0004 min^−1
same,Non-enzymatic hydrolysis rate at pH 8 relative to pH 6 and 7,[3],~ 10 times higher
same,Initial rate of hydrolysis to CoA or oxa(dethia)CoA,[4]; [10],0.0004 ± 0.0001 min⁻¹
same,Initial rate of hydrolysis to CoA or oxa(dethia)CoA,[4]; [11],0.0010 ± 0.0001 min⁻¹
same,Initial rate of hydrolysis to CoA or oxa(dethia)CoA,[4]; [12],0.0038 ± 0.0002 min⁻¹
same,transthiolation rate,[5],0.05 s⁻¹
same,Km,"[5]; read-out: apparent KM, pH 7.0, malonyl-S-ACP as acceptor ref 32, 35",40 µM
same,Km,[6],8.5 µM
same,Km,[7],210 µM
"CC(=O)OCCNC(=O)CCNC(=O)[C@H](O)C(C)(C)COP(=O)(O)OP(=O)(O)OC[C@H]1O[C@@H](n2cnc3c(N)ncnc32)[C@H](O)[C@@H]1OP(=O)(O)O [compound 1, acetyl-oxa(dethia)CoA]",Initial rate of hydrolysis to CoA or oxa(dethia)CoA,[2]; [12],~ 0.001 min^−1
same,effect on FabH activity with acetyl-CoA and malonyl-CoA as substrates,[1],slightly activating; also recorded: did not find inhibition; also recorded: a couple percent activation
same,Ki,[1]; [9],weak activation
same,activating potential for FabH decarboxylation of malonyl-CoA to acetoacetyl-CoA,[4],not strong activators
same,Initial rate of hydrolysis to CoA or oxa(dethia)CoA,[4]; [12],~ 0.003 min^−1
"CC(=O)NCCNC(=O)CCNC(=O)[C@H](O)C(C)(C)COP(=O)(O)OP(=O)(O)OC[C@H]1O[C@@H](n2cnc3c(N)ncnc32)[C@H](O)[C@@H]1OP(=O)(O)O [compound 2, acetyl-aza(dethia)CoA]",effect on FabH activity with acetyl-CoA and malonyl-CoA as substrates,[1],moderate inhibitor
same,Ki,[1]; competition with malonyl-CoA binding assumed,800 µM
same,Ki,[1]; [9],800 ± 100 µM
same,activating potential for FabH decarboxylation of malonyl-CoA to acetoacetyl-CoA,[4],not strong activators
same,Ki,[6],1600 nM
same,Ki,[7],130 µM
"CC(C)(COP(=O)(O)OP(=O)(O)OC[C@H]1O[C@@H](n2cnc3c(N)ncnc32)[C@H](O)[C@@H]1OP(=O)(O)O)[C@@H](O)C(=O)NCCC(=O)NCCOC(=O)CC(=O)O [compound 3, malonyl-oxa(dethia)CoA]",Decarboxylation by C112Q mutant,[2],not detected
same,Initial rate of hydrolysis to CoA or oxa(dethia)CoA,[2]; [12],~ 0.001 min^−1
same,stability with the FabH C112Q mutant,[2],relatively unreactive
same,Ki,[1]; [9],800 ± 400 µM
same,Decarboxylation by FabH,[4],not detected
same,Initial rate of hydrolysis to CoA or oxa(dethia)CoA,[4]; [12],~ 0.001 min^−1
"CC(C)(COP(=O)(O)OP(=O)(O)OC[C@H]1O[C@@H](n2cnc3c(N)ncnc32)[C@H](O)[C@@H]1OP(=O)(O)O)[C@@H](O)C(=O)NCCC(=O)NCCNC(=O)CC(=O)O [compound 4, malonyl-aza(dethia)CoA]",stability with the FabH C112Q mutant,[2],completely stable
same,Ki,[1]; [9],700 ± 300 µM
"CC(C)(COP(=O)(O)OP(=O)(O)OC[C@H]1O[C@@H](n2cnc3c(N)ncnc32)[C@H](O)[C@@H]1OP(=O)(O)O)[C@@H](O)C(=O)NCCC(=O)NCCO [compound 5, oxa(dethia)CoA]",Ki,[1]; [9],400 ± 200 µM
"CC(C)(COP(=O)(O)OP(=O)(O)OC[C@H]1O[C@@H](n2cnc3c(N)ncnc32)[C@H](O)[C@@H]1OP(=O)(O)O)[C@@H](O)C(=O)NCCC(=O)NCCN [compound 6, aza(dethia)CoA]",Ki,[1]; [9],900 ± 400 µM
CC(C)(COP(=O)(O)OP(=O)(O)OC[C@H]1O[C@@H](n2cnc3c(N)ncnc32)[C@H](O)[C@@H]1OP(=O)(O)O)[C@@H](O)C(=O)NCCC(=O)NCCSC(=O)CF [fluoroacetyl-CoA],Km,[8],8 µM
CC(C)(COP(=O)(O)OP(=O)(O)OCC1OC(n2cnc3c(N)ncnc32)C(O)C1OP(=O)(O)O)C(O)C(=O)NCCC(=O)NCCNC(=O)CF (stereo not drawn) [fluoroacetyl-aza(dethia)CoA],Kd,[8],1700 µM
CC(C)(COP(=O)(O)OP(=O)(O)OC[C@H]1O[C@@H](n2cnc3c(N)ncnc32)[C@H](O)[C@@H]1OP(=O)(O)O)[C@@H](O)C(=O)NCCC(=O)NCCOC(=O)CF [fluoroacetyl-oxa(dethia)CoA],Kd,[8],90 µM
CC(C)(COP(=O)(O)OP(=O)(O)OC[C@H]1O[C@@H](n2cnc3c(N)ncnc32)[C@H](O)[C@@H]1OP(=O)(O)O)[C@@H](O)C(=O)NCCC(=O)NCCSC(=O)CC(=O)O [malonyl-CoA],FabH C112Q decarboxylation relative to activated wild-type in the absence of acetyl-CoA,[2],5 times faster
same,Initial rate of hydrolysis to CoA or oxa(dethia)CoA,[2]; [10],0.0005 ± 0.0001 min⁻¹
same,"Initial rate, malonyl-CoA → acetyl-CoA/acetoacetyl-CoA","[2]; pH 6, ~250 μM substrate",0.0060 ± 0.0006 min⁻¹
same,Initial rate of hydrolysis to CoA or oxa(dethia)CoA,[2]; [11],0.0007 ± 0.0001 min⁻¹
same,"Initial rate, malonyl-CoA → acetyl-CoA/acetoacetyl-CoA","[2]; pH 7, ~250 μM substrate",0.18 ± 0.01 min⁻¹
same,Initial rate of hydrolysis to CoA or oxa(dethia)CoA,[2]; [12],0.0032 ± 0.0005 min⁻¹
same,"Initial rate, malonyl-CoA → acetyl-CoA/acetoacetyl-CoA","[2]; pH 8, ~250 μM substrate",0.20 ± 0.02 min⁻¹
same,Ki,"[1]; read-out: Ki (substrate inhibition), varying malonyl-CoA, acetyl-CoA at 125 μM, substrate inhibition model",1900 ± 600 µM
same,Km,[1]; [13],2.5 mM and ~2.5 mM
same,kcat,[1]; [13],5.9 ± 1.4 min⁻¹
same,Non-enzymatic hydrolysis rate,[3],~ 0.0004 min^−1
same,Non-enzymatic hydrolysis rate at pH 8 relative to pH 6 and 7,[3],~ 10 times higher
same,"Initial rate, malonyl-CoA → acetyl-CoA/acetoacetyl-CoA","[4]; pH 7, ~250 μM substrate",biphasic
same,"Initial rate, malonyl-CoA → acetyl-CoA/acetoacetyl-CoA","[4]; pH 8, ~250 μM substrate, 25 μM acetyl-CoA to alleviate lag phase, value is for acetoacetyl-CoA appearance",0.043 ± 0.001^‡ min^−1
same,time to reaction completion,[4]; malonyl-CoA with priming acetyl-CoA (10% of malonyl-CoA),about 250 min
same,time to reaction completion,[4]; malonyl-CoA without priming acetyl-CoA (Figure 2J),620 min
